According to patent publication US9375416B2, “Epigallocatechin gallate tetramer and vascular endothelial function improving agent containing the same” (SUNTORY HOLDING LIMITED, priority 2008, dated 2016):

What was measured:
Type in all cases: cell-based
Settings in all cases: human umbilical vascular endothelial cells, 10 μM, 8 hours, untreated cells as control
GTP-CH1 gene = GTP-CH1 gene expression in cultured vascular endothelial cells (quantitative PCR)
Source text: (§1) With respect to the compounds of Formula (II) and Formula (III) synthesized and purified in Example 1, the effect of them on expression of a gene involved in the vascular endothelial function was studied. Furthermore, as compounds for comparison, an EGCG monomer (manufactured by Wako Pure Chemical Industries Ltd.), theaflavin, theaflavin 3-O-gallate, theaflavin 3′-O-gallate and theaflavin 3,3′-O-digallate (manufactured by Nagara Science Co., Ltd.), which are known to have a vascular endothelial function improving action.
(§2) These compounds were dissolved in sterilized dimethyl sulfoxide (DMSO, manufactured by Nacalai Tesque Inc.) to prepare a solution having a concentration of 10 mM.
(§3) These solutions were diluted 1000 fold by using HuMedia-EG2 medium (manufactured by Kurabo Industries Ltd.) to prepare a solution having a final concentration of 10 μM (the final concentration of DMSO was 0.1 V/V %). These sample solutions each were added to human umbilical vascular endothelial cells (manufactured by Kurabo Industries Ltd.) cultured in a 6-well plate in a proportion of 3 mL/well and incubated at 37° C. under 5% CO2 conditions for 8 hours.
(§4) The cells were recovered by ISOGEN (manufactured by Nippon Gene Co., Ltd.) and RNA was extracted from the cells. Furthermore, RNA was purified by RNeasy Mini Kit (QIAGEN). cDNA was synthesized by a High-Capacity cDNA reverse transcription kit (manufactured by Applied Biosystem) using the total RNA (200 ng) purified as a template and quantitative PCR was performed. Analysis was performed by comparative Ct method with a glyceraldehyde-3-phosphate dehydrogenase gene used as an internal standard. The gene expression change ratio (ratio relative to the control) of a test sample was calculated by using untreated cells as a control.

[1] = test system: Nox4 subunit gene of NADPH oxidase; assay: Expression of Nox4 subunit gene of NADPH oxidase in cultured vascular endothelial cells (quantitative PCR)
Source text: as §1, §2, §3, §4

eNOS gene = eNOS gene expression in cultured vascular endothelial cells (quantitative PCR)
Source text: as §1, §2, §3, §4

DDAH2 gene = DDAH2 gene expression in cultured vascular endothelial cells (quantitative PCR)
Source text: as §1, §2, §3, §4

O=C(OC1Cc2c(O)cc(O)c(Cc3c(O)cc(O)c4c3OC(c3cc(O)c(O)c(O)c3)C(OC(=O)c3cc(O)c(O)c(O)c3)C4)c2OC1c1cc(O)c(O)c(O)c1)c1cc(O)c(O)c(O)c1 (centres unmarked) [oolong homobisflavan-A, oolong homobisflavan A]
do not substantially change: expression of the GTP-CH1 gene (gene expression change ratio relative to the control) (GTP-CH1 gene) | expression of Nox4 subunit gene of NADPH oxidase (gene expression change ratio relative to the control) [1] | expression of the eNOS gene (gene expression change ratio relative to the control) (eNOS gene) | expression of the DDAH2 gene (gene expression change ratio relative to the control) (DDAH2 gene)

O=C(OC1Cc2c(cc(O)c(Cc3c(O)cc(O)c4c3OC(c3cc(O)c(O)c(O)c3)C(OC(=O)c3cc(O)c(O)c(O)c3)C4)c2O)OC1c1cc(O)c(O)c(O)c1)c1cc(O)c(O)c(O)c1 (centres unmarked) [oolong homobisflavan-B]
do not substantially change: expression of the GTP-CH1 gene (gene expression change ratio relative to the control) (GTP-CH1 gene) | expression of Nox4 subunit gene of NADPH oxidase (gene expression change ratio relative to the control) [1] | expression of the eNOS gene (gene expression change ratio relative to the control) (eNOS gene) | expression of the DDAH2 gene (gene expression change ratio relative to the control) (DDAH2 gene)

O=C(O[C@@H]1Cc2c(cc(O)c(Cc3c(O)cc4c(c3O)C[C@@H](OC(=O)c3cc(O)c(O)c(O)c3)[C@@H](c3cc(O)c(O)c(O)c3)O4)c2O)O[C@@H]1c1cc(O)c(O)c(O)c1)c1cc(O)c(O)c(O)c1 [oolong homobisflavan-C]
do not substantially change: expression of the GTP-CH1 gene (gene expression change ratio relative to the control) (GTP-CH1 gene) | expression of Nox4 subunit gene of NADPH oxidase (gene expression change ratio relative to the control) [1] | expression of the eNOS gene (gene expression change ratio relative to the control) (eNOS gene) | expression of the DDAH2 gene (gene expression change ratio relative to the control) (DDAH2 gene)

O=C(O[C@@H]1Cc2c(O)cc(O)cc2O[C@@H]1c1cc(O)c(O)c(O)c1-c1c([C@H]2Oc3cc(O)cc(O)c3C[C@H]2OC(=O)c2cc(O)c(O)c(O)c2)cc(O)c(O)c1O)c1cc(O)c(O)c(O)c1 [theasinensin A]
do not substantially change: expression of the GTP-CH1 gene (gene expression change ratio relative to the control) (GTP-CH1 gene) | expression of Nox4 subunit gene of NADPH oxidase (gene expression change ratio relative to the control) [1] | expression of the eNOS gene (gene expression change ratio relative to the control) (eNOS gene) | expression of the DDAH2 gene (gene expression change ratio relative to the control) (DDAH2 gene)

(−)-epigallocatechin-3-O-gallate [EGCG monomer]
do not substantially change: expression of the GTP-CH1 gene (gene expression change ratio relative to the control) (GTP-CH1 gene) | expression of Nox4 subunit gene of NADPH oxidase (gene expression change ratio relative to the control) [1] | expression of the eNOS gene (gene expression change ratio relative to the control) (eNOS gene) | expression of the DDAH2 gene (gene expression change ratio relative to the control) (DDAH2 gene)
